Assay results reported in publication PMC9150102 (Journal of Medicinal Chemistry, 2022).

Tests used:
SERCA1 = target: T1, SERCA1 (Cavia porcellus, UniProt H0UXI0); assay: SERCA1 ATPase activity in PLN-free skeletal muscle microsomes; assay type: biochemical, guinea pig; details: 30 to 1000 nM
T1 construct: from tissue; host or cells: adult male guinea pig fast-twitch hind leg muscle, SR microsomes
Protocol: Data are the mean ± SEM. *p < 0.05 (one-way RM ANOVA plus post hoc Tukey’s multiple comparisons or paired t-test).
Measurements were performed in cardiac SR microsomes (guinea pig) and in whole tissue homogenates (rat). Cardiac preparations included SERCA2a and PLN. To test for PLN involvement in the effect of compounds, SERCA1 activity was measured in PLN-free microsomes (from guinea pig skeletal muscle) before and after reconstitution with the synthetic PLN1–32 inhibitory fragment at a ratio of 300:1 for PLN/SERCA. […] Either an increase in Vmax (rat) or a decrease in KdCa (increased Ca^2+ affinity) (guinea pig) stands for enhancement of SERCA function.
(rats). As verified by Western blot, cardiac microsomes preparations included SERCA2a and PLN and skeletal muscle ones included SERCA1 only.
SERCA stimulation4, compounds were also tested on SERCA1 in microsomes of guinea-pig skeletal muscle (PLN-free) before and after reconstitution with the PLN1-32 inhibitory fragment at a ratio of 300:1 […]
SERCA2a ATPase activity was measured as the rate of 32P-ATP release at multiple Ca2+ concentrations (100-2000 nM) in the absence and presence of tested compounds, as previously described5. […] 32P was separated by centrifugation with activated charcoal (Norit A, Serva) and the radioactivity was measured. […]

[1] = system: Na^+/K^+ ATPase current (INaK); assay: Na+/K+ ATPase current (INaK) in isolated rat LV myocytes; assay type: cell-based; details: isolated rat cardiomyocytes
[2] = system: SR Ca^2+ uptake in STZ cardiomyocytes; assay: SR loading protocol (SR Ca2+ uptake under NCX inhibition) in patch-clamped STZ myocytes; assay type: cell-based, rat; details: 1 μM
[3] = Acute toxicity (LD50) in mice; details: male, Albino Swiss CD-1, mouse, in vivo
Protocol: Acute toxicity (LD50) was preliminarily evaluated in mice following i.v. and oral drug administration.
Control animals received the vehicle only.
Drug toxicity studies in mice
Acute toxicity was determined in CD1 mice. Separate mice groups were either orally treated, or
intravenously injected, with increasing doses of the tested substance to identify the dose causing 50%
mortality (LD50). Acute mortality was assessed at 30 min after compound administration; survival was

T1 sequence (H0UXI0 1-1001): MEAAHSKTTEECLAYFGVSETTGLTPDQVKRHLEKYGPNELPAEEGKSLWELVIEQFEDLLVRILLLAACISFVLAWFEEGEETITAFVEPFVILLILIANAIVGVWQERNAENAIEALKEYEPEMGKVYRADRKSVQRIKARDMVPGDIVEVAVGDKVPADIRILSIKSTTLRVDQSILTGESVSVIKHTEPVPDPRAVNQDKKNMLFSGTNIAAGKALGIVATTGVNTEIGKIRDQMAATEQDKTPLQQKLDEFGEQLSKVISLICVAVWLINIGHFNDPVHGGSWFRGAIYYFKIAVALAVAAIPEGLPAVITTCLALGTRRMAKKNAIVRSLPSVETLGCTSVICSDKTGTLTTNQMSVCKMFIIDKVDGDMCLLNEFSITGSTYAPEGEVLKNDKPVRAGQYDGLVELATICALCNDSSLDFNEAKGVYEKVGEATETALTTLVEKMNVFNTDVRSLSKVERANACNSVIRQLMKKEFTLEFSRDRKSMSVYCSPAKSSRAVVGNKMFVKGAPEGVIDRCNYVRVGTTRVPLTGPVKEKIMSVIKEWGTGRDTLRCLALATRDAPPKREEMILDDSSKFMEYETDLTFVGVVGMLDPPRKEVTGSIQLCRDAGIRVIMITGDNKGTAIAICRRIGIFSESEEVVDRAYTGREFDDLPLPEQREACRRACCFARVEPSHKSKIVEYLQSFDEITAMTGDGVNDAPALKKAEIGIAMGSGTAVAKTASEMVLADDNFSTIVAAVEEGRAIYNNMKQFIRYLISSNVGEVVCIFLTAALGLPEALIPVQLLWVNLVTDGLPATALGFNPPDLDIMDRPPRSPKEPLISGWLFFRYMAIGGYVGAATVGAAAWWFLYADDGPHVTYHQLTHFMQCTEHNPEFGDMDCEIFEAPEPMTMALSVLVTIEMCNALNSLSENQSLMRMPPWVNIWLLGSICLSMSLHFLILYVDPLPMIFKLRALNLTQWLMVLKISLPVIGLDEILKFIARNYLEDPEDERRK

| SMILES | skeletal SERCA1 activity in the absence of PLN (SERCA1) | concentration above which INaK inhibition is detectable [1] | Ca2+ transient (CaT) decay time constant [2] | CaT amplitude [2] | excitation release (ER) gain [2] | LD50 at 24 h ([3]; iv) [mg/kg] | LD50 at 24 h ([3]; po) [mg/kg] |
| --- | --- | --- | --- | --- | --- | --- | --- |
| C[C@]12CC[C@H](CCCC(=O)O)C[C@@H]1[C@@H](O)C[C@@H]1[C@@H]2CC[C@]2(C)C(=O)CC[C@@H]12 [Compound 5] | failed to affect | higher than 20 μM | sharply accelerated Ca^2+ transient (CaT) decay | not significantly affected | increased excitation release (ER) gain | 300 | > 800 |
| C[C@]12CC[C@H](CC(=O)O)C[C@@H]1[C@@H](O)C[C@@H]1[C@@H]2CC[C@]2(C)C(=O)CC[C@@H]12 [Compound 8] | failed to affect | – | – | – | – | – | – |
